# Columns and labels:
# [1] = target: RNAP-promoter open complex (RNAP holoenzyme, lacUV5-12 DNA fragment) (Escherichia coli, UniProt P0A8T7+P0A8V2); assay: Electrophoretic mobility-shift analysis of open-complex formation; type: biochemical; conditions: 0-100 μm Lpm, added to RNAP before addition of the promoter DNA; FIG. 3
# Description: To determine whether Lpm inhibits steps in transcription up to and including formation of the RNAP-promoter open complex, electrophoretic mobility-shift experiments were performed. The analysis of open-complex formation was performed as follows: reaction mixtures (20 μl) contained 100 nM RNAP holoenzyme, 20 nM fluorochrome-labeled DNA fragment lacUV5-12 (Cy5, +26) (Mukhopadhyay et al., 2001), and 0-100 μm Lpm in TB (50 mM Tris-HCl (pH 8.0), 100 mM KCl, 10 mM MgCl2, 1 mM dithiothreitol, 10 μg/ml bovine serum albumin, and 5% glycerol), added before or after the DNA. Following 15 min at 37° C., 0.5 μl 1 mg/ml heparin was added (to disrupt non-specific complexes), and, following a further 2 minutes at 37° C., reaction mixtures were applied to 5% polyacrylamide slab gels (30:1 acrylamide/bisacrylamide; 6×9×0.1 cm) and electrophoresed in 90 mM Tris-borate (pH 8.0) and 0.2 mM EDTA (20 V/cm; 30 min at 37° C.) and analyzed using a fluorescence scanner (Storm 860; Molecular Dynamics).
# [2] = system: Gram-positive bacteria and Gram-negative bacteria; conditions: literature (Coronelli et al., 1975); cited from earlier work
# [3] = system: Escherichia coli hyper-permeable strain D21f2/TolC; assay: MIC of Lpm for Escherichia coli Lpm^R isolates from saturation mutagenesis and selection; type: cell-based
# Description: To define systematically determinants for function of Lpm, saturation mutagenesis of Escherichia coli rpoB and rpoC was performed, and Lpm^R mutants were isolated and characterized (targeting codons or residues located within 20 Å of Bacillus subtilis Lpm^R sites in the three-dimensional structure of RNAP; methods as in Mukhopadhyay, et al., (2004) Mol. Cell, in press, except that selection was performed in hyper-permeable strain D21f2/TolC (rfa tolC; Fralick et al., (1994) J. Bacteriol. 176, 6404-6406)). 24 independent single-substitution Lpm^r mutants were identified (Table 2). The substitution sites define an approximately 20 Å×20 Å continuous surface, located within the RNA-exit-channel, spanning the target, and containing each residue of the target (i.e., residues 1251, 1256, and 1321 of β and residues 248-249 of β′; Table 2). Substitution sites corresponding to substitution sites in the Bacillus subtilis Lpm^R mutants described above were among those identified (i.e., residue 1256 of β and residues 249 and 337 of β′; Tables 1, 2).
# bacterial RNAP = conditions: literature; cited from earlier work
# RNAP-promoter open complex (RNAP holoenzyme, lacUV5-12 DNA fragment), sequence (P0A7Z4 whole entry, the tested form may be a part): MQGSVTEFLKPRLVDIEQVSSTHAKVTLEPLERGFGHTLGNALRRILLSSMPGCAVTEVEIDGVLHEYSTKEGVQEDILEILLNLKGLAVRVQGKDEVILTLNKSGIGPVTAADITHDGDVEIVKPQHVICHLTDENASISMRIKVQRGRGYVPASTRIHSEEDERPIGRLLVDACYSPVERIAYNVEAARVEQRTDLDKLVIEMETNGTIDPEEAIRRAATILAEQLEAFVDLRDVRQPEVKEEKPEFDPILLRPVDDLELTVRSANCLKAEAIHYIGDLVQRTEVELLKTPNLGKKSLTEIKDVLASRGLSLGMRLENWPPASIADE
# RNAP-promoter open complex (RNAP holoenzyme, lacUV5-12 DNA fragment), sequence (P0A8V2 whole entry, the tested form may be a part): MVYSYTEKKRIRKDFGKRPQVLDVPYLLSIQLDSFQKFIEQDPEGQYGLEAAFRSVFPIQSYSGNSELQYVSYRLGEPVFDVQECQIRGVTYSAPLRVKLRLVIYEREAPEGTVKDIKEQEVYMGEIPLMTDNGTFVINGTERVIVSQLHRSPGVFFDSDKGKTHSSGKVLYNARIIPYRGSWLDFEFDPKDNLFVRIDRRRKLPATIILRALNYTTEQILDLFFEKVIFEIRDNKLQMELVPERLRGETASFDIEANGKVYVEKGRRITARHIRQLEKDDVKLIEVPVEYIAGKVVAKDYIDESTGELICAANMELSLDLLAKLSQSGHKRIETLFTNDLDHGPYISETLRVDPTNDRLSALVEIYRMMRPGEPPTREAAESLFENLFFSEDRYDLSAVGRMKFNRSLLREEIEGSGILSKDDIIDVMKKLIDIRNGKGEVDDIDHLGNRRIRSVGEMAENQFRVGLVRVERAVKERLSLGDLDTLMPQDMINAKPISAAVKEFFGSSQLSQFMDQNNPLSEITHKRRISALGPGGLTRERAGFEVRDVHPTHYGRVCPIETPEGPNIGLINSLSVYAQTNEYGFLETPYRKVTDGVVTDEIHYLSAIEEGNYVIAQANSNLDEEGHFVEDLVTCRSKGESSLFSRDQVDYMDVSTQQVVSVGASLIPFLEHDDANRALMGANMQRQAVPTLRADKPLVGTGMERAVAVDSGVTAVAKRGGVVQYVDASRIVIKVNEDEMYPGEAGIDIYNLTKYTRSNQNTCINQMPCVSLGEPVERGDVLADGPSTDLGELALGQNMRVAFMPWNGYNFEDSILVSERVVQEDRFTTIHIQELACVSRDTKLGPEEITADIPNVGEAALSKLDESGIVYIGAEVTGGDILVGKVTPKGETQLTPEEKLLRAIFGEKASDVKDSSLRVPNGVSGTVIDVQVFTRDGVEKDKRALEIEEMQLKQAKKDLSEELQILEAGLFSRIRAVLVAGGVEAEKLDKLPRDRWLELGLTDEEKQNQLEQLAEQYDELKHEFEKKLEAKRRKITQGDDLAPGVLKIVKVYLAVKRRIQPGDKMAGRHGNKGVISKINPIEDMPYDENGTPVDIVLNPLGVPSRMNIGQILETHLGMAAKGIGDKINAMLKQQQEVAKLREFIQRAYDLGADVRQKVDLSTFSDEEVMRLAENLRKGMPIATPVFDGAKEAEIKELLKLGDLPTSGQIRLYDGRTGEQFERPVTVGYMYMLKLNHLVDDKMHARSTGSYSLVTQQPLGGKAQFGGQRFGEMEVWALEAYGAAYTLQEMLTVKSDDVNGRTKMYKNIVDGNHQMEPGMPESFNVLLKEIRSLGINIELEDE
# RNAP-promoter open complex (RNAP holoenzyme, lacUV5-12 DNA fragment), sequence (P0A800 whole entry, further chain, the tested form may be a part): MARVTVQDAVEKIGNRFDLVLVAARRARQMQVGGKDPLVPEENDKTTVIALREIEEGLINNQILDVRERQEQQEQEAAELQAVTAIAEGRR
# RNAP-promoter open complex (RNAP holoenzyme, lacUV5-12 DNA fragment), sequence (P00579 whole entry, further chain, the tested form may be a part): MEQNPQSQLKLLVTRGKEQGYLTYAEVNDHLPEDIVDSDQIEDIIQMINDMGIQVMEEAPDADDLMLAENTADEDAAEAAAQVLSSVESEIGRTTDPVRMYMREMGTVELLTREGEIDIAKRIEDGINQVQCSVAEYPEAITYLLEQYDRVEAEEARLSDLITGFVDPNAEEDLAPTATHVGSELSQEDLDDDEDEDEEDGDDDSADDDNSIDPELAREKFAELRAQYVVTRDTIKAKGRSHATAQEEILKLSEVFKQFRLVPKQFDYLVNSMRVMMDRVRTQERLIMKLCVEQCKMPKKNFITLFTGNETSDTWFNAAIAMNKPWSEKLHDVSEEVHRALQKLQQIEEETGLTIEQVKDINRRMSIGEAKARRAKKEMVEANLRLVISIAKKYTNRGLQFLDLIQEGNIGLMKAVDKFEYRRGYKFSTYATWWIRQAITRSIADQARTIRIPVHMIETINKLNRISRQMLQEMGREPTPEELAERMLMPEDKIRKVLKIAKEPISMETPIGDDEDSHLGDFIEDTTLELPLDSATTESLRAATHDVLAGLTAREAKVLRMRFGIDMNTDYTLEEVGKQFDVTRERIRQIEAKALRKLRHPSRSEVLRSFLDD
# RNAP-promoter open complex (RNAP holoenzyme, lacUV5-12 DNA fragment), sequence (P0A8T7 whole entry, the tested form may be a part): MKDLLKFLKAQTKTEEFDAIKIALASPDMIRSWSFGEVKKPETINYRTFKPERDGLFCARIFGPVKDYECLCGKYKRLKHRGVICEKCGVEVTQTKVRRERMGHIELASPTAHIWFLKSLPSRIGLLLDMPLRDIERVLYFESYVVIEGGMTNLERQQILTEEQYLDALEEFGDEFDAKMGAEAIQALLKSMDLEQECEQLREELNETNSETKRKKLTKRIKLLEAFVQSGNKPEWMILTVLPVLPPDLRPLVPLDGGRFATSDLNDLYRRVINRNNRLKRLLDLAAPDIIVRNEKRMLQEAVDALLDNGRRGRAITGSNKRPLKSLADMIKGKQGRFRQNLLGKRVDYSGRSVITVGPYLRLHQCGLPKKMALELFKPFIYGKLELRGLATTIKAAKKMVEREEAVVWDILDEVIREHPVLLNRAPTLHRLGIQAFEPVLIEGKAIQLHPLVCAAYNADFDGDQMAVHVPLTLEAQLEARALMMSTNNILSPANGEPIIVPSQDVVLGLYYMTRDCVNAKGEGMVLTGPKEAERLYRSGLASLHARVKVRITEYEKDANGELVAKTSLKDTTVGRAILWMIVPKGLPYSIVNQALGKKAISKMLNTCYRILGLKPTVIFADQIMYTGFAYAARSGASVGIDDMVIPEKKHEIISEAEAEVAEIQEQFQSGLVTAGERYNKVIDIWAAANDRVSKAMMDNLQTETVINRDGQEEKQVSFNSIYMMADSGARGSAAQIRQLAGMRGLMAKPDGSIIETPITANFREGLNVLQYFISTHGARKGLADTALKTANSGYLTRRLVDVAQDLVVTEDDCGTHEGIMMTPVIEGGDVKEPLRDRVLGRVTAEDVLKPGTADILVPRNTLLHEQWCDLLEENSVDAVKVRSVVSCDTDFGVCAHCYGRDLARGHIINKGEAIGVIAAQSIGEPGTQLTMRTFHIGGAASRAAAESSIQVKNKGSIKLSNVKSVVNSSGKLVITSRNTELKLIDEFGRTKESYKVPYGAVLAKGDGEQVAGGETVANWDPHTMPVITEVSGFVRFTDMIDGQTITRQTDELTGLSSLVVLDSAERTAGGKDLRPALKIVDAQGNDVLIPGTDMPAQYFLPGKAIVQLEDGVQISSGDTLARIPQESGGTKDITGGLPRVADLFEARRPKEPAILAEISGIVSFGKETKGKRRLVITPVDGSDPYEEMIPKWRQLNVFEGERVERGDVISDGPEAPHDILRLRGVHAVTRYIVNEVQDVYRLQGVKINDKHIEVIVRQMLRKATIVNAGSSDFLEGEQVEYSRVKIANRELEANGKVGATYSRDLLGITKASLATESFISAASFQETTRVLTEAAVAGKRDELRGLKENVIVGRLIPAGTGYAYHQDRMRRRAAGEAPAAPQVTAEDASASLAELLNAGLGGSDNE
substance,measurement,setting,value
lipiarmycin [Lpm],formation of the RNAP-promoter open complex,[1],inhibits formation of the RNAP-promoter open complex
same,antibacterial effectiveness,[2],effective against both Gram-positive bacteria and Gram-negative bacteria
same,MIC (mg/ml) (wild-type = 1),[3]; RpoB 1251 Tyr→Phe,10 fold relative to wild-type
same,MIC (mg/ml) (wild-type = 1),[3]; RpoB 1256 Gln→Glu,10 fold relative to wild-type
same,MIC (mg/ml) (wild-type = 1),[3]; RpoB 1256 Gln→Leu,5 fold relative to wild-type
same,MIC (mg/ml) (wild-type = 1),[3]; RpoB 1302 Thr→Pro,5 fold relative to wild-type
same,MIC (mg/ml) (wild-type = 1),[3]; RpoB 1318 Gly→Ser,5 fold relative to wild-type
same,MIC (mg/ml) (wild-type = 1),[3]; RpoB 1319 Met→Arg,10 fold relative to wild-type
same,MIC (mg/ml) (wild-type = 1),[3]; RpoB 1319 Met→Lys,5 fold relative to wild-type
same,MIC (mg/ml) (wild-type = 1),[3]; RpoB 1321 Glu→Val,5 fold relative to wild-type
same,MIC (mg/ml) (wild-type = 1),[3]; RpoB 1325 Val→Ala,10 fold relative to wild-type
same,MIC (mg/ml) (wild-type = 1),[3]; RpoB 1325 Val→Leu,5 fold relative to wild-type
same,MIC (mg/ml) (wild-type = 1),[3]; RpoC 248 Asp→Tyr,5 fold relative to wild-type
same,MIC (mg/ml) (wild-type = 1),[3]; RpoC 249 Leu→Arg,5 fold relative to wild-type
same,MIC (mg/ml) (wild-type = 1),[3]; RpoC 337 Arg→Hys,5 fold relative to wild-type
same,MIC (mg/ml) (wild-type = 1),[3]; RpoC 337 Arg→Ser,5 fold relative to wild-type
same,MIC (mg/ml) (wild-type = 1),[3]; wild-type E. coli,(wild-type = 1) mg/ml
same,inhibition of bacterial RNAP,bacterial RNAP,inhibits bacterial RNAP
